# Data: ChEMBL document CHEMBL4342498, “Design and Discovery of an Orally Efficacious Spiroindolinone-Based Tankyrase Inhibitor for the Treatment of Colon Cancer” (J Med Chem, 2020)
# Legend:
# COLO 320DM = assay: Antiproliferative activity against human COLO320DM cells assessed as inhibition of cell growth measured after 4 days by CellTiter-Glo assay; assay type: functional; conditions: 96 h
# Tankyrase 1/2 [1] = molecular target: T1, Tankyrase 1/2 (Homo sapiens, UniProt Q9H2K2+O95271); conditions: hek293
# T1 sequence (Q9H2K2 whole entry): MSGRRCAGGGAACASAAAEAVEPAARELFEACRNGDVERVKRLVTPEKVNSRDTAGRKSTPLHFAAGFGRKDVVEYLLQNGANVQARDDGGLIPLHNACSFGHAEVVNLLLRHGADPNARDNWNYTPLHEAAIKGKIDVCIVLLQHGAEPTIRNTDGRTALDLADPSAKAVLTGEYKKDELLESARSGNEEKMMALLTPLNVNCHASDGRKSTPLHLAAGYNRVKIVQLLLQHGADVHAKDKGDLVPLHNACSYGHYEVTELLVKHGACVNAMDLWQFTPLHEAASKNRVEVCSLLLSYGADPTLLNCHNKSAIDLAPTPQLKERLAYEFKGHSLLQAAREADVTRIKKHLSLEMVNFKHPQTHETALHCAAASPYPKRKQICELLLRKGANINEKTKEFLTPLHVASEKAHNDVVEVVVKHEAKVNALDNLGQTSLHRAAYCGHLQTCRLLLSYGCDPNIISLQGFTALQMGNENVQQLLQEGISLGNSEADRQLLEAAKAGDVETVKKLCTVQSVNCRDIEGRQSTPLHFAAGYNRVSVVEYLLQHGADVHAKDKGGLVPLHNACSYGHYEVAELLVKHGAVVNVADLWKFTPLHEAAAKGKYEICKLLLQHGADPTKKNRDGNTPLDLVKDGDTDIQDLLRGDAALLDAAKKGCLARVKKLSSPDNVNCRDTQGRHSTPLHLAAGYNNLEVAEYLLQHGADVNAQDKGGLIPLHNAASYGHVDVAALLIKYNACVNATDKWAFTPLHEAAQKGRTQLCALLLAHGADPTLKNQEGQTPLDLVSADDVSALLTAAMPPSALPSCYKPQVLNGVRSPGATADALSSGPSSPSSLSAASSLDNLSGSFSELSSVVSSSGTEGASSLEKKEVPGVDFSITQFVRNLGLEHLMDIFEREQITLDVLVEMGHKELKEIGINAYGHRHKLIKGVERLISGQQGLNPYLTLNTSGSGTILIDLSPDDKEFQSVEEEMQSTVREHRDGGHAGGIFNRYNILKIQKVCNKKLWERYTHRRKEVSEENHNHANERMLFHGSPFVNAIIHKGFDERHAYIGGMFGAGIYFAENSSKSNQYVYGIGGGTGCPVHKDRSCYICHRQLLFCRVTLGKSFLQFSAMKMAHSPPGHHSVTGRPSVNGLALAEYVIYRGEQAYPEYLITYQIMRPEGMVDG
# T1 sequence (O95271 whole entry): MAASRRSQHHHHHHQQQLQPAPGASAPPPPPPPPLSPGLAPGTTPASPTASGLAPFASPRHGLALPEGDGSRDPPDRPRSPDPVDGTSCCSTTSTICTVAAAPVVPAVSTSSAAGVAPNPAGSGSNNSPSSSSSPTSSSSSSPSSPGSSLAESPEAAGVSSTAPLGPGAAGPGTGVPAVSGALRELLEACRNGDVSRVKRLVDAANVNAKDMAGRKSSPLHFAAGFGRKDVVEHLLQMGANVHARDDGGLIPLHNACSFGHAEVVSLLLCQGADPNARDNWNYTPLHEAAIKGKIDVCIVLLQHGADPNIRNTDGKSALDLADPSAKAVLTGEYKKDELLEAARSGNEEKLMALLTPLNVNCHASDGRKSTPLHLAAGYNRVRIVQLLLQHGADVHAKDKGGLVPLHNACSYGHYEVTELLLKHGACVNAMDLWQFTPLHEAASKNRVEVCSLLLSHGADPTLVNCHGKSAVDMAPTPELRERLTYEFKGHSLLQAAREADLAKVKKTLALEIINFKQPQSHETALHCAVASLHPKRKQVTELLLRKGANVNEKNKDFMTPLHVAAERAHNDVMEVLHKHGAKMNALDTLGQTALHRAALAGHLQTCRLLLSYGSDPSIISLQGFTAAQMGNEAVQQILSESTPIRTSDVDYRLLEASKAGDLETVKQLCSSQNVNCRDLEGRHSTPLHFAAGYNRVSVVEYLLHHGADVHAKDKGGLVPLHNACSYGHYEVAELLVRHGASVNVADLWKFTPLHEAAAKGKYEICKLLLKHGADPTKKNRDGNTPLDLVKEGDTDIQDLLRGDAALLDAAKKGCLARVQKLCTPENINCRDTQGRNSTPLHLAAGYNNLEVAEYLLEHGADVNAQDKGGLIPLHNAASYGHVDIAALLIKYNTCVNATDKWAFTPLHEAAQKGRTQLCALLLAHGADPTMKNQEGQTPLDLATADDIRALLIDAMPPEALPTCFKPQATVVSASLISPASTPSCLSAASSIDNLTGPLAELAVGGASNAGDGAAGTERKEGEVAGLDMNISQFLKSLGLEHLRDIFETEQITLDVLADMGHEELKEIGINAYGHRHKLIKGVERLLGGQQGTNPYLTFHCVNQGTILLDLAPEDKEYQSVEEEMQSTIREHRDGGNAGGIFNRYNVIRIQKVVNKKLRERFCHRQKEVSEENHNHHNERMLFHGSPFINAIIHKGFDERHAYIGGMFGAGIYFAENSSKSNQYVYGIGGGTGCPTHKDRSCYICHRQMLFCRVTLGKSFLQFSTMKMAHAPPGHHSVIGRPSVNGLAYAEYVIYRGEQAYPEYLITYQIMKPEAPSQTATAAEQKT
# Description: Inhibition of TNKS/TNKS2 (unknown origin) expressed in HEK293 cells assessed as reduction in Wnt-signaling measured after 24 hrs by TCF-luciferase reporter gene assay
# [2] = molecular target: T2, Poly [ADP-ribose] polymerase tankyrase-1 (Homo sapiens, UniProt O95271)
# T2 sequence (O95271 whole entry): T1 sequence (O95271 whole entry)
# Description: Inhibition of recombinant human N-terminal TEV cleavage site-fused/FLAG-poly his-tagged TNKS SAM-PARP domain (1024 to 1327 residues) expressed in Escherichia coli assessed as reduction in auto-PARylation preincubated for 10 mins followed by biotinylated-NAD+ addition and measured after 45 mins by ELISA
# [3] = molecular target: T3, Poly [ADP-ribose] polymerase tankyrase-2 (Homo sapiens, UniProt Q9H2K2); assay: Inhibition of recombinant human N-terminal TEV cleavage site-fused/FLAG-poly his-tagged TNKS2 ARC5-SAM-PARP domain (613 to 1166 residues) expressed in Escherichia coli assessed as reduction in auto-PARylation preincubated for 10 mins followed by biotinylated-NAD+ addition and measured after 45 mins by ELISA
# T3 sequence (Q9H2K2 whole entry): T1 sequence (Q9H2K2 whole entry)
# Tankyrase 1/2 [4] = molecular target: T1, Tankyrase 1/2
# Description: Inhibition of TNKS/TNKS2 (unknown origin) expressed in human DLD1 cells assessed as reduction in Wnt-signaling measured after 24 hrs by TCF-luciferase reporter gene assay
# [5] = Stability in mouse liver microsomes assessed as parent compound remaining at 1 uM measured after 60 mins in presence of NADPH by LC-MS/MS analysis; assay type: ADME, Microsome; conditions: read-out: Stability
# MDR1 = assay: Efflux ratio of permeability across basolateral to apical side over apical to basolateral side in MDCK2-MDR1 cells; assay type: ADME, cell-based, Canis lupus familiaris; conditions: dog, MDCK-MDR1
# [6] = Stability in human liver microsomes assessed as parent compound remaining at 1 uM measured after 60 mins in presence of NADPH by LC-MS/MS analysis; assay type: ADME, Microsome; conditions: read-out: Stability
# [7] = Efflux ratio of permeability across basolateral to apical side over apical to basolateral side in MDCK2 cells; assay type: ADME, cell-based, Canis lupus familiaris, MDCK-II; conditions: dog, mdck
# physchem = conditions: phosphate buffered saline, pH 7.4
# [8] = Net efflux ratio of permeability across basolateral to apical side over apical to basolateral side in MDCK2-MDR1 cells to MDCK2 cells; assay type: ADME, cell-based, Canis lupus familiaris; conditions: dog, mdck
SMILES,GI50 (COLO 320DM),IC50 (Tankyrase 1/2 [1]),IC50 [2],IC50 [3],IC50 (Tankyrase 1/2 [4]),"remaining at 1 h, 1 µM [5]",efflux ratio (MDR1),"remaining at 1 h, 1 µM [6]",efflux ratio [7],"solubility at 1 h, 200 µM (physchem)",Ratio [8]
CN1CCCc2c1nc(N1CCC3(CC1)C(=O)N(CC(O)CO)c1cc(F)cc(F)c13)[nH]c2=O (configuration not stated),710 nM,0.7 nM,8.9 nM,12.5 nM,14.5 nM,42.7%,43.7,23.9%,11.2,88.2 µg/mL,3.9
COCCOc1cc(F)c2c(c1)N(C)C(=O)C21CCN(c2nc3c(c(=O)[nH]2)CCCN3C)CC1,50 nM,0.1 nM,4.8 nM,6.4 nM,1.3 nM,13.7%,7.5,1.8%,2.1,11.4 µg/mL,3.6
Cc1cccc2c(=O)[nH]c(N3CCC4(CC3)C(=O)N(CCO)c3cc(F)cc(F)c34)nc12,2490 nM,0.2 nM,5.3 nM,3.4 nM,4.8 nM,,,,,,
CN1CCc2c1nc(N1CCC3(CC1)C(=O)N(CCO)c1cc(F)cc(F)c13)[nH]c2=O,2370 nM,4.4 nM,14.1 nM,27.6 nM,32.9 nM,,,,,,
O=C1N(CCO)c2cc(F)cc(F)c2C12CCN(c1nc3c(c(=O)[nH]1)CCCC3)CC2,2270 nM,2.1 nM,14.9 nM,20.6 nM,71.2 nM,,,,,,

# The next lines start with the values.
GI50 (COLO 320DM),IC50 (Tankyrase 1/2 [1]),IC50 [2],IC50 [3],IC50 (Tankyrase 1/2 [4]),"remaining at 1 h, 1 µM [5]",efflux ratio (MDR1),"remaining at 1 h, 1 µM [6]",efflux ratio [7],"solubility at 1 h, 200 µM (physchem)",Ratio [8],SMILES
3560 nM,1.1 nM,3.8 nM,7 nM,7.1 nM,,,,,,,Cn1ccc2c(=O)[nH]c(N3CCC4(CC3)CN(CCO)c3cc(F)cc(F)c34)nc21
> 20000 nM,1.5 nM,4.5 nM,10.2 nM,6.3 nM,,,,,,,Cn1ccc2c(=O)[nH]c(N3CCC4(CC3)C(=O)N(CCO)c3cc(F)cc(F)c34)nc21
720 nM,3.1 nM,5.5 nM,8.5 nM,13.7 nM,,,,,,,Cc1cccc2c(=O)[nH]c(N3CCC4(CC3)CN(CCO)c3cc(F)cc(F)c34)nc12
